Laboratory results from patent US9056887B2, “Minor groove binder phosphoramidites and methods of use” (Elitech Holding B.V., priority 2011, dated 2015).

Assay: Solubility of MGB phosphoramidites in acetonitrile (oligonucleotide synthesis solvent)
Type: physicochemical
Settings: standard solvent for on-line oligosynthesis
Method: Activated pentafluorophenyl ester 1 of the DPI3 type of minor groove bindinding ligands was prepared as previously described (U.S. Pat. No. 7,381,818) and coupled with four secondary amine-containing terminal functions generatin trimers 2(a-d), (Reaction Scheme 1, FIG. 1) suitable for following protection and phosphoramidite preparation. The use of secondary amino function prevents the possibility of the formation of acyclic side-product (Basel and Hassner 2000) during the following protection step. The trimers 2(a-d) were reacted with diethyl pyrocarbonate in the presence of DMAP to protect the three heteroaromatic indolamino groups and afford carbomates 3(a-d). Methyl and tert-butyl dicarbonates were also tested and produced the respective carbamates with good yields. […] Therefore, the ethylcarbamate protection was concluded to be optimal allowing fast deprotection and providing the required solubility in acetonitrile. […]
Test octathymidylates were synthesized on an ABI 3900 DNA synthesizer using thymidine-5′- or 3′-phosphoramidites and a DMT-O-hexylsuccinate solid support. […] Crude reaction mixtures were concentrated in a SpeedVac evaporator and analyzed by mass spectroscopy to confirm molecular weight and determine purity of crude MGB-oligonucleotide conjugates. […]

**Q.** With `CCOC(=O)n1c(-c2ccc(OCCCCCCOP(OCCC#N)N(C(C)C)C(C)C)cc2)nc2cc(-c3nc4cc(-c5nc6cc(N7CCN(C)CC7)ccc6n5C(=O)OCC)ccc4n3C(=O)OCC)ccc21` (stereo not shown) [Phosphoramidite 25] as the compound, how does the solubility in acetonitrile read?
**A.** only sparingly soluble
